Source: US12479847B2 (DANA-FARBER CANCER INSTITUTE, INC., priority 2019, dated 2025)

Columns and labels:
Assay in all cases: KINOMEscan (ScanMAX) kinase profiling
Format in all cases: binding
panel of 468 kinases [1] = target: T1, panel of 468 kinases (Homo sapiens, UniProt P42336, I800L); conditions: PIK3CA(I800L); 1 μM; read-out: % control
T1 construct: purchased KINOMEscan (ScanMAX) service

panel of 468 kinases [2] = target: T2, panel of 468 kinases (Homo sapiens, UniProt Q9NWZ3); conditions: IRAK4; 1 μM; read-out: % control
T2 construct: purchased KINOMEscan (ScanMAX) service
T2 sequence (Q9NWZ3 1-460): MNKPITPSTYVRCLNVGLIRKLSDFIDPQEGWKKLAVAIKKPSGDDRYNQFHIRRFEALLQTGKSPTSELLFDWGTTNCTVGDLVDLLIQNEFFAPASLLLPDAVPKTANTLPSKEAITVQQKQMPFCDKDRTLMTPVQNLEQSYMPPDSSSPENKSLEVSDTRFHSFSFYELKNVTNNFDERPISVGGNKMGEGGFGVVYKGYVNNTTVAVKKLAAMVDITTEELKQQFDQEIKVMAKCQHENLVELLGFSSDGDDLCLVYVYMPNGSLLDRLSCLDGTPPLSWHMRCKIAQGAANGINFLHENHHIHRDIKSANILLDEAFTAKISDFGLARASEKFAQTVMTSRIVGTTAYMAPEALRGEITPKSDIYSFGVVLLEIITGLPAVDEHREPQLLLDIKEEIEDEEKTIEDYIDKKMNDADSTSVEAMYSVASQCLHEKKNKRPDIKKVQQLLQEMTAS

panel of 468 kinases [3] = target: T3, panel of 468 kinases (Homo sapiens, UniProt P11362); conditions: FGFR1; 1 μM; read-out: % control
T3 construct: purchased KINOMEscan (ScanMAX) service

panel of 468 kinases [4] = target: T4, panel of 468 kinases (Homo sapiens, UniProt Q9P289); conditions: MST4; 1 μM; read-out: % control
T4 construct: purchased KINOMEscan (ScanMAX) service

panel of 468 kinases [5] = target: T5, panel of 468 kinases (Homo sapiens, UniProt P29317); conditions: EPHA2; 1 μM; read-out: % control
T5 construct: purchased KINOMEscan (ScanMAX) service

panel of 468 kinases [6] = target: T6, panel of 468 kinases (Homo sapiens, UniProt P68400); conditions: CSNK2A1; 1 μM; read-out: % control
T6 construct: purchased KINOMEscan (ScanMAX) service

panel of 468 kinases [7] = target: T7, panel of 468 kinases (Homo sapiens, UniProt P42681); conditions: TXK; 1 μM; read-out: % control
T7 construct: purchased KINOMEscan (ScanMAX) service
T7 sequence (P42681 1-527): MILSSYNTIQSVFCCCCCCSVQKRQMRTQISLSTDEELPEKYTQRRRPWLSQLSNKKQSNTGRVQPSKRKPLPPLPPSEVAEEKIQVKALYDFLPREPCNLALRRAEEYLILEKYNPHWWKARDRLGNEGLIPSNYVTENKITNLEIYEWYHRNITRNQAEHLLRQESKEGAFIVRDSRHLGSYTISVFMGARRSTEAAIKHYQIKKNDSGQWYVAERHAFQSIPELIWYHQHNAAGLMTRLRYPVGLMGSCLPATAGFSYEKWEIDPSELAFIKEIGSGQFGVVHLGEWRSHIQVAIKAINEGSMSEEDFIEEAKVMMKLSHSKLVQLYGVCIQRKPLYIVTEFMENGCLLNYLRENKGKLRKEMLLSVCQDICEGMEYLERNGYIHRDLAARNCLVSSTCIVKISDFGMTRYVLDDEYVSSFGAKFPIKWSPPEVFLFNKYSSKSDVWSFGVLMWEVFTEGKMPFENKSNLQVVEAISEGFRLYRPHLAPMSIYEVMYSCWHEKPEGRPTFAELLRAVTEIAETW

panel of 468 kinases [8] = target: T8, panel of 468 kinases (Homo sapiens, UniProt P49841); conditions: GSK3B; 1 μM; read-out: % control
T8 construct: purchased KINOMEscan (ScanMAX) service

panel of 468 kinases [9] = target: T9, panel of 468 kinases (Homo sapiens, UniProt P42336, Q546K); conditions: PIK3CA(Q546K); 1 μM; read-out: % control
T9 construct: purchased KINOMEscan (ScanMAX) service

panel of 468 kinases [10] = target: T10, panel of 468 kinases (Homo sapiens, UniProt O00506); conditions: YSK1; 1 μM; read-out: % control
T10 construct: purchased KINOMEscan (ScanMAX) service

panel of 468 kinases [11] = target: T11, panel of 468 kinases (Homo sapiens, UniProt Q12851); conditions: MAP4K2; 1 μM; read-out: % control
T11 construct: purchased KINOMEscan (ScanMAX) service
T11 sequence (Q12851 1-820): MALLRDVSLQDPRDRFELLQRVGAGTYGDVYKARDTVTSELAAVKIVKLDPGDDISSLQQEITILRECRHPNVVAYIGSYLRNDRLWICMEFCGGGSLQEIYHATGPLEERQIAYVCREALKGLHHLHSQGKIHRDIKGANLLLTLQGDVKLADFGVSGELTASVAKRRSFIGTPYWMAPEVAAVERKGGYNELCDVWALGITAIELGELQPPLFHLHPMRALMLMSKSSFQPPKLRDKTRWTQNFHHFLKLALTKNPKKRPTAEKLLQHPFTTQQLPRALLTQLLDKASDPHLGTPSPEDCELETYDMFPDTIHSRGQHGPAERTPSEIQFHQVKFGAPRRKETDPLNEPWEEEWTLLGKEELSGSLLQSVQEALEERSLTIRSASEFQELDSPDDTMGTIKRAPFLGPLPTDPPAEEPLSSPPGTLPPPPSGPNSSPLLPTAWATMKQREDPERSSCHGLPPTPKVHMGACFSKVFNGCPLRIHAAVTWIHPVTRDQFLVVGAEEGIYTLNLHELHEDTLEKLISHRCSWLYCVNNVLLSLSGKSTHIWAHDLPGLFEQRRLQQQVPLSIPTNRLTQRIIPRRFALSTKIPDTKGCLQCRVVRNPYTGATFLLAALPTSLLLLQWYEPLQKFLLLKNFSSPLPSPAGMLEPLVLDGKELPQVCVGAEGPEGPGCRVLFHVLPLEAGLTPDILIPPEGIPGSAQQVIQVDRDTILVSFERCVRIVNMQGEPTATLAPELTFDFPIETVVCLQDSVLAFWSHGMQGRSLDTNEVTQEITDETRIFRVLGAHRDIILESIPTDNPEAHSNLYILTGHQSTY

T9 sequence (P42336 whole entry Q546K): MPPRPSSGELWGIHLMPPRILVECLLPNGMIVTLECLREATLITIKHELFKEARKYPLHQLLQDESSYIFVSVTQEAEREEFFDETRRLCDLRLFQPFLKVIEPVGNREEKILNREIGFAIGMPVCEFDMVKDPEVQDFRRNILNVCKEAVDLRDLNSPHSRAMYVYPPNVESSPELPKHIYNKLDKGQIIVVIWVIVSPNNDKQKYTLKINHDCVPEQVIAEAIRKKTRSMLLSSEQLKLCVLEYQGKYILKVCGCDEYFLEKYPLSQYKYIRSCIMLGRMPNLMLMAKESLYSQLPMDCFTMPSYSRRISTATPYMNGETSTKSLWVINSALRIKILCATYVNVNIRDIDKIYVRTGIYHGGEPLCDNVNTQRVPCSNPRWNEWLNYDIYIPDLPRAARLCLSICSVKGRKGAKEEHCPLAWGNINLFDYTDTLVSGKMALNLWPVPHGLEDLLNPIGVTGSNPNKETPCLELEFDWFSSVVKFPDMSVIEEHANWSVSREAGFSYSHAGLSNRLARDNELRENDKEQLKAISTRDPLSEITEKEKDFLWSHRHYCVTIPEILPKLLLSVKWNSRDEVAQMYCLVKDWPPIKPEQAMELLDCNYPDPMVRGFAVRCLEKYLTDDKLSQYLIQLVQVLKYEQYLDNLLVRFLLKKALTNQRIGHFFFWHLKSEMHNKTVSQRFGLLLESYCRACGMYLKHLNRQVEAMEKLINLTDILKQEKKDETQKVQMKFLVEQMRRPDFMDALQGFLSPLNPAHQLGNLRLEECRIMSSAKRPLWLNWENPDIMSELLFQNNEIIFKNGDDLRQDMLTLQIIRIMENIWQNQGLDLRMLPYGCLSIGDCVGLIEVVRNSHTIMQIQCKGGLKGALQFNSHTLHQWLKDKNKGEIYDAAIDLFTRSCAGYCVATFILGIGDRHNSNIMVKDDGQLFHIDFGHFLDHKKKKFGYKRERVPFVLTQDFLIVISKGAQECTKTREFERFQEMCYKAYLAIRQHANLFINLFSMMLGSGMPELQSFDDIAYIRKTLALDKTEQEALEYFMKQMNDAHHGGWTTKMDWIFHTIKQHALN
T1 sequence (P42336 whole entry I800L): as the sequence (P42336 whole entry Q546K) above, with K546Q, I800L counted along it
T10 sequence (O00506 whole entry): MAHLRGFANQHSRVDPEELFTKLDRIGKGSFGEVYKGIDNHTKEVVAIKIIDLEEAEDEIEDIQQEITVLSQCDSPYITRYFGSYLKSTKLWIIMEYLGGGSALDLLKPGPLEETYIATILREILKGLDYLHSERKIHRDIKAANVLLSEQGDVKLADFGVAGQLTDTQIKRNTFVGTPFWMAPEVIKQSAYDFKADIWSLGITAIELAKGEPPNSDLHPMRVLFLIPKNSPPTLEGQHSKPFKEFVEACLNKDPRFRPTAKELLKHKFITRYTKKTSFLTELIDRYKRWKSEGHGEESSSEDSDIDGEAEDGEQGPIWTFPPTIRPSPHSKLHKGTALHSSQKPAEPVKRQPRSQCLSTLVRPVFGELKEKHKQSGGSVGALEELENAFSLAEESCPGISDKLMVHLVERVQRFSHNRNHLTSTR
T8 sequence (P49841 whole entry): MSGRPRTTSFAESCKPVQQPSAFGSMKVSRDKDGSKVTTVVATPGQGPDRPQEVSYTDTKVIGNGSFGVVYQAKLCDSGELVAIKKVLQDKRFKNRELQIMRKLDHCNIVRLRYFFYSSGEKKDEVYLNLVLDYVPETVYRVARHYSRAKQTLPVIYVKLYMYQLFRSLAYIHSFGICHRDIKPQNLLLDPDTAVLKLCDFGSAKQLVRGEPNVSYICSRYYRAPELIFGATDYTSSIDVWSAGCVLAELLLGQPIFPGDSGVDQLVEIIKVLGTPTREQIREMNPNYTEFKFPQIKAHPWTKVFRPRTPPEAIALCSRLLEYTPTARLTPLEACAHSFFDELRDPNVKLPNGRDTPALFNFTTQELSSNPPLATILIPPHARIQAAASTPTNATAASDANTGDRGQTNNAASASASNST
T4 sequence (Q9P289 whole entry): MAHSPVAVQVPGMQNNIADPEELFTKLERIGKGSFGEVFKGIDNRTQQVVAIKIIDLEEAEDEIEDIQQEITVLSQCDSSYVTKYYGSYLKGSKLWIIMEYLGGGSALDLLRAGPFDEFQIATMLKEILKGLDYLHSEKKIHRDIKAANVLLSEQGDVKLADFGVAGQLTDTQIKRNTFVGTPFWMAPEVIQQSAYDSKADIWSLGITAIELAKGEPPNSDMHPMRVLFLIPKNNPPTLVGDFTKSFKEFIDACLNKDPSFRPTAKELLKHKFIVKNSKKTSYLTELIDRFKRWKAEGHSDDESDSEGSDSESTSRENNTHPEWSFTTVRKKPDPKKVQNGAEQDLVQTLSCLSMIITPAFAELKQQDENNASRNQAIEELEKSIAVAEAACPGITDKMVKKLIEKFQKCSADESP
T5 sequence (P29317 24-976): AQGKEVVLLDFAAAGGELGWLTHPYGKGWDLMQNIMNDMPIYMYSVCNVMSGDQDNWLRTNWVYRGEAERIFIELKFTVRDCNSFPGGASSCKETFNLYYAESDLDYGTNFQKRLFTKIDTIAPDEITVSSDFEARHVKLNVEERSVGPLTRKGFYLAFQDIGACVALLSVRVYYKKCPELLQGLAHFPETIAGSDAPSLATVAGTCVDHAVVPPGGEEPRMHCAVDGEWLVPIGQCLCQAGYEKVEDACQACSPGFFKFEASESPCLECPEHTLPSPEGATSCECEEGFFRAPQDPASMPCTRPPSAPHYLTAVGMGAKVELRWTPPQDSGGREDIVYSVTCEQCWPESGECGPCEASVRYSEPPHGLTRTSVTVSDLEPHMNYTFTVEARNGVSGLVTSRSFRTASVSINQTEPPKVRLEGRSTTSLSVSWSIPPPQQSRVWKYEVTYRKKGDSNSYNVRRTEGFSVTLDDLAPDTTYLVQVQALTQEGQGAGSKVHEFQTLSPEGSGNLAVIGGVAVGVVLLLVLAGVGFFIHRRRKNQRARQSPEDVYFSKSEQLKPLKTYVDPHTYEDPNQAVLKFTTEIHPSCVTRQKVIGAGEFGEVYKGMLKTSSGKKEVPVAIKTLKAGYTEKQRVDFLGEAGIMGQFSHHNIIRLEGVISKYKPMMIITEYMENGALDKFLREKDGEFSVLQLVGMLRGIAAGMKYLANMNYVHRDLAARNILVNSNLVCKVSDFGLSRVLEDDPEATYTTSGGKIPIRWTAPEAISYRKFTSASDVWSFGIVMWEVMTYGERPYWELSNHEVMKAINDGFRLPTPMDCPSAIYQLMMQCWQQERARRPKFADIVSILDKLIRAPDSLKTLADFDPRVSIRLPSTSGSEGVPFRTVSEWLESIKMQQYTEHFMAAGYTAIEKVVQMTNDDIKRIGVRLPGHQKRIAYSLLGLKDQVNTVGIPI
T6 sequence (P68400 whole entry): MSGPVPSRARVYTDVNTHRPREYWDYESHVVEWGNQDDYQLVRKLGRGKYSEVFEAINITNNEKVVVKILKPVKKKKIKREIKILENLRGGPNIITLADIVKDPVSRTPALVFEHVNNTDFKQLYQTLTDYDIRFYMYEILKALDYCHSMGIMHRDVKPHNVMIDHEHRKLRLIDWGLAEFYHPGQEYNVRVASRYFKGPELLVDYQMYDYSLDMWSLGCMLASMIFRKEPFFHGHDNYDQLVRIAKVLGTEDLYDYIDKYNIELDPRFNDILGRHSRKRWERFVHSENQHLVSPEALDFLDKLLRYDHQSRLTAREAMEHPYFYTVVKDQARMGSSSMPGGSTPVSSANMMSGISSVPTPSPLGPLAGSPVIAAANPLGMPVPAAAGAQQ
T3 sequence (P11362 22-822): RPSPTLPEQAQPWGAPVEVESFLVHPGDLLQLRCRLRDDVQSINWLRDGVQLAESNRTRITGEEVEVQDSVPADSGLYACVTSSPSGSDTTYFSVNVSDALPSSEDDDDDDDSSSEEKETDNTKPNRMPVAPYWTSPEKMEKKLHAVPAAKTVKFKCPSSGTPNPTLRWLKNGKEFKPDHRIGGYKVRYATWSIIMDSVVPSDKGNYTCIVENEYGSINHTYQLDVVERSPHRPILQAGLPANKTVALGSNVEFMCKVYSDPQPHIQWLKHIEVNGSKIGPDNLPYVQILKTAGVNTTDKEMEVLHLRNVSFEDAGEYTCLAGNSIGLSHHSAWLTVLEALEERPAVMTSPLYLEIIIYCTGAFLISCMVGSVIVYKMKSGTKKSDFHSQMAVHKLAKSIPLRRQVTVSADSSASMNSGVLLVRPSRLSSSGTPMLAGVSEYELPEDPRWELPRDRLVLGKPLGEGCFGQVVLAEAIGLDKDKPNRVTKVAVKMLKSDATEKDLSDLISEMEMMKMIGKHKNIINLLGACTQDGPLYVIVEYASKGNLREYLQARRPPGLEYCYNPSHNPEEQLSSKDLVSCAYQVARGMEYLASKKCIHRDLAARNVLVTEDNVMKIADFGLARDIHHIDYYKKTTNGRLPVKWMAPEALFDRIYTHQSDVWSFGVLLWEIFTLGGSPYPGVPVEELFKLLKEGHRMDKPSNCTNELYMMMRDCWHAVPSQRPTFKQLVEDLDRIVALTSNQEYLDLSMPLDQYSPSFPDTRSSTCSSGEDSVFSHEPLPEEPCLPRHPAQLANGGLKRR

CNc1nc(Nc2ccc(C(=O)N3CCC(N4CCOCC4)CC3)c3c2OCO3)nc2[nH]cc(Cl)c12 [Compound 75, (7-((5-chloro-4-(methylamino)-7H-pyrrolo[2,3-d]pyrimidin-2-yl)amino)benzo[d][1,3]dioxol-4-yl)(4-morpholinopiperidin-1-yl)methanone] showed a remaining binding at 1 µM (panel of 468 kinases [1]) of 87%, a remaining binding at 1 µM (panel of 468 kinases [2]) of 82% and a remaining binding at 1 µM (panel of 468 kinases [3]) of 94%. It also gave a remaining binding at 1 µM (panel of 468 kinases [4]) of 51%, a remaining binding at 1 µM (panel of 468 kinases [5]) of 96% and a remaining binding at 1 µM (panel of 468 kinases [6]) of 24%. For the same molecule, the remaining binding at 1 µM (panel of 468 kinases [7]) was 87%, the remaining binding at 1 µM (panel of 468 kinases [8]) was 97% and the remaining binding at 1 µM (panel of 468 kinases [9]) was 65%. For the same molecule, the remaining binding at 1 µM (panel of 468 kinases [10]) was 100% and the remaining binding at 1 µM (panel of 468 kinases [11]) was 6.2%.

With CNc1nc(Nc2ccc(S(=O)(=O)N3CCC(N4CCOCC4)CC3)cc2OC)nc2[nH]cc(Cl)c12 [Compound 12, 5-chloro-N2-(2-methoxy-4-((4-morpholinopiperidin-1-yl)sulfonyl)phenyl)-N4-methyl-7H-pyrrolo[2,3-d]pyrimidine-2,4-diamine] the remaining binding at 1 µM (panel of 468 kinases [1]) was 74%, the remaining binding at 1 µM (panel of 468 kinases [2]) was 95% and the remaining binding at 1 µM (panel of 468 kinases [3]) was 89%. The remaining binding at 1 µM (panel of 468 kinases [4]) was 80%, the remaining binding at 1 µM (panel of 468 kinases [5]) was 100% and the remaining binding at 1 µM (panel of 468 kinases [6]) was 63%. It also gave a remaining binding at 1 µM (panel of 468 kinases [7]) of 100%, a remaining binding at 1 µM (panel of 468 kinases [8]) of 96% and a remaining binding at 1 µM (panel of 468 kinases [9]) of 50%. It also gave a remaining binding at 1 µM (panel of 468 kinases [10]) of 100% and a remaining binding at 1 µM (panel of 468 kinases [11]) of 61%.

Molecule CNc1nc(Nc2ccc(P3(=O)CCN(C4CCOCC4)CC3)cc2OC)nc2[nH]cc(Cl)c12 [Compound 77, 4-(4-((5-chloro-4-(methylamino)-7H-pyrrolo[2,3-d]pyrimidin-2-yl)amino)-3-methoxyphenyl)-1-(tetrahydro-2H-pyran-4-yl)-1,4-azaphosphinane 4-oxide] has a remaining binding at 1 µM (panel of 468 kinases [1]) of 69%, a remaining binding at 1 µM (panel of 468 kinases [2]) of 98% and a remaining binding at 1 µM (panel of 468 kinases [3]) of 100%. The remaining binding at 1 µM (panel of 468 kinases [4]) was 76%, the remaining binding at 1 µM (panel of 468 kinases [5]) was 100% and the remaining binding at 1 µM (panel of 468 kinases [6]) was 59%. It also gave a remaining binding at 1 µM (panel of 468 kinases [7]) of 98%, a remaining binding at 1 µM (panel of 468 kinases [8]) of 100% and a remaining binding at 1 µM (panel of 468 kinases [9]) of 46%. For the same molecule, the remaining binding at 1 µM (panel of 468 kinases [10]) was 100% and the remaining binding at 1 µM (panel of 468 kinases [11]) was 39%.
